Measured values taken from patent publication US9394549B2, “Method for producing useful chemical substance from terephthalic acid potassium salt” (GENARIS, INC., priority 2012, dated 2016).
Where two headings read alike, the source gives them in different places.

Columns and labels:
[1] = Solubility of terephthalic acid salts in water; type: physicochemical
Experimental: 2.99 g (0.018 mol) of terephthalic acid (in a form of powder, manufactured by Sigma-Aldrich Japan; hereinafter, unless otherwise specified, reagents used were ones manufactured by Sigma-Aldrich Japan) and 0.036 mol of potassium hydroxide (in a form of granule) were put in a 50 mL-glass beaker. Distilled water was filled to obtain a volume of about 15 mL. The resulting mixture was covered with aluminum foil as a lid, heated at 50° C. for 60 minutes while stirred by a hot stirrer (manufactured by AS ONE Corporation), and allowed to cool to 30° C. After stirring at 30° C. for 120 minutes or more and confirming the precipitate remained in the solution, 1 mL of the solution was collected and subjected to centrifugation using a high speed micro centrifuge (manufactured by Tomy Seiko Co., Ltd.) (30° C., 14000 rpm (17800 g), 30 seconds) to collect the supernatant.
The concentration of terephthalic acid in this supernatant was measured and regarded as the solubility of dipotassium terephthalate. With regard to the measurement of the concentration of terephthalic acid, the sample was diluted 16,000-fold with 2.5% aqueous acetonitrile solution and analyzed in separation conditions of Table 1 using high performance liquid chromatography (Waters Corporation, LCT Premier XE). Thereafter, the concentration was calculated on the basis of a ratio of the area of terephthalic acid peaks using aqueous terephthalic acid solution with a known concentration as a control.

[2] = tested on: Escherichia coli K-12 M7032 strain; experiment: Decomposition of ethylene glycol during production of TPA-DHD, control strain; type: cell-based; conditions: raw material dipotassium terephthalate with ethylene glycol, final concentration 72 mM
Experimental: Subsequently, in the same manner as described in Example 1, Escherichia coli M7032 (pUXPEaLT_tpaA_tpaK_Pm_fucO_I7L_aldA) strain and Escherichia coli K-12 M7032 strain which serves as a control were cultured in a mini jar fermentor. Concurrently with administration of dipotassium terephthalate which serves as a raw material, 0.278 ml (final concentration 72 mM) of ethylene glycol was placed.
Sampling was carried out 48 hours after the start of main culture. Each of the samples was subjected to analysis in conditions shown in Table 1 by an LC-TOF type mass spectrometer (Waters Corporation, LCT Premier XE). Identification of terephthalic acid was carried out with a combination of retention time of high performance liquid chromatography and an accurate mass value from the mass spectrometer, comparing to a standard sample of terephthalic acid. Among substances appeared as terephthalic acid decreased, TPA-DHD was identified on the basis of a predicted accurate mass value of TPA-DID. Further, quantification of TPA-DHD was carried out on the basis of a calibration curve prepared from an amount of terephthalic acid decreased and an increase in the peak area of TPA-DHD. […]

[3] = tested on: Escherichia coli M7032 (pUXPEaLT_tpaA_tpaK_Pm_fucO_I7L_aldA) strain; experiment: Decomposition of ethylene glycol during production of TPA-DHD; type: cell-based; conditions: raw material dipotassium terephthalate with ethylene glycol, final concentration 72 mM

N.O=C([O-])c1ccc(C(=O)O)cc1.[Na+] [1-sodium 4-ammonium terephthalate, reference compound]
solubility [1]: 612 mM | solubility in water at 30° C. [1]: about 0.61 M

N.N.O=C(O)c1ccc(C(=O)O)cc1 [Diammonium terephthalate, diammonium terephthalate, reference compound]
solubility ([1]; 30 °C, water, thermodynamic from solid, in water at 30° C., rounded values of the summary, read-out: solubility in water at 30° C.): ~510 mM | solubility ([1]; 30 °C, water, thermodynamic from solid, in water, 30° C., read-out: Solubility): 512 mM

O=C(O)C1=CC(O)C(O)(C(=O)O)C=C1 (stereo not drawn) [TPA-DHD, terephthalate 1,2-cis-dihydrodiol]
amount of TPA-DHD produced 48 hours after the start of the culture [2]: 11.1 g/L | amount of TPA-DHD produced 48 hours after the start of the culture [3]: 10.5 g/L
